Measured values published in patent US4570005A, “Process for the preparation of 2-arylpropyl ether or thioether derivatives” (priority 1980, dated 1986).
Where two headings read alike, the source gives them in different places.

Columns and labels:
[1] = tested on: resistant green rice leafhopper (collected at Nakagawara); assay: Test 3: Effect on Resistant Green Rice Leafhopper (collected at Nakagawara); type: in vivo, Nephotettix cincticeps Uhler (Green rice leafhopper); settings: Nephotettix cincticeps, read-out: Mortality (%), Green Rice Leafhopper Collected at Nakagawara
In short: (§1)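 Emulsifiable concentrate diluted to 100 or 20 ppm was sprayed, 3 ml per pot, onto hydroponic rice seedlings at 2–3 leaves. After air-drying, 10 female adults of the Nakagawara (resistant) or Chigasaki (sensitive) strain were released per caged pot. Mortality was counted at 24 h and averaged over three pots.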

[2] = tested on: sensitive green rice leafhopper (collected at Chigasaki); assay: whole plant or invertebrate; type: in vivo; settings: Nephotettix cincticeps, read-out: Mortality (%), Green Rice Leafhopper Collected at Chigasaki
In short: as §1

[3] = tested on: two-spotted spider mite; assay: Test 6: Effect on Two-Spotted Spider mite Adults; type: in vivo; settings: Tetranychus urticae
Method: (§2) To a mixture of 20 parts of the compound of the present invention and 20 parts of Sorpol SM-200 (registered tradename for the product supplied by Toho Chemical Industrial Co., Ltd.) was added 60 parts of xylol, and the mixture was suffciently blended. The obtained emulsifiable concentrate was diluted at a predetermined concentration with distilled water, and the obtained dilution was used.
A kidney bean leaf disc perforated with a cork borer (15 mm in diameter) was placed on water-impregnated absorbent cotton (2 cm×2 cm), and 10 adults of two-spotted spider mite were set free. A chemical dilution having a concentration of 100 ppm was applied with an applicator in an amount of 3 ml.
The leaf disc-placed absorbent cotton was placed in a thermostat chamber maintained at 25° C. After 24 hours, the number of killed adults was counted and the mortality was calculated. The test was made on three leaf discs and the average value was calculated.

[4] = Test 9: Toxicity Test (acute oral toxicity, mice); settings: mouse, in vivo, po
Method: A predetermined amount of a solution or suspension of a test compound in corn oil was orally administered to male mice having a body weight of 19 to 23 g (0.2 ml per 10 g of the body weight). After 7 days, the number of killed mice was counted and the influences on the mice were examined.

[5] = Test 8: Fish Toxicity; type: in vivo; settings: carp, water; concentration at which 1/2 of the test fishes were killed within 48 hours; read-out: Fish Toxicity, TLm48
Method: A water tank having a width of 60 cm, a length of 30 cm and a height of 40 cm was filled with water, and 10 yearling carps having a body length of about 5 cm were set free in the tank and adapted to the environment in the tank. A test compound was applied so that the concentration in water was 10, 1 or 0.1 ppm. After 48 hours, the numbers of killed and living carps were counted and the influences on the fishes were examined.

[6] = tested on: tobacco cutworm; assay: Test 1: Effect on Tobacco Cutworm (leaf immersion), mortality after 24 hours; type: in vivo; settings: second-instar larvae, 25° C
In short: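 Sweet-potato leaves dipped 10 s in emulsifiable concentrate diluted to 100 or 20 ppm, air-dried, then exposed to second-instar larvae at 25 °C. Mortality counted after 24 h, averaged over three cups.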

[7] = tested on: German cockroach; assay: Test 7: Effect on German Cockroach; type: in vivo; settings: Blattella germanica
In short: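 Petri dish floors were treated with 50 or 10 mg/m2 of compound (diluted emulsifiable concentrate) and air-dried. Ten male adult German cockroaches per dish were held at 25° C. Agonized and dead insects were counted after 24 hours, averaging two dishes.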

[8] = tested on: diamond back moth; assay: Test 4: Effect on Diamond Back Moth; type: in vivo; settings: Plutella, third-instar larvae, 24 hours, read-out: Mortality (%)
In short: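 Compound formulated as an emulsifiable concentrate, diluted in water to 100 or 20 ppm and sprayed at 3 ml per cup onto cabbage leaves holding 10 third-instar larvae. Mortality counted after 24 hours; mean of three cups.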

[9] = tested on: green peach aphid; assay: Test 5: Effect on Green Peach Aphid; type: in vivo; settings: Myzus persicae; 100 ppm; mortality class; 24 hours; read-out: Insecticidal Activity
Method: as §2
Seedlings (having 3 to 4 leaves) of an eggplant grown on a pot were inoculated with green peach aphids and the insects were allowed to grow. The number of the insects was counted. A chemical dilution having a concentration of 100 ppm, prepared in the same manner as described in Test 1, was applied with a spray gun at a rate of 10 ml per pot. Then, the pot was placed in a glass green house. After 24 hours, the number of living insects was counted and the mortality was calculated.
The test was made on three pots, and the average value was calculated. In Table 6, mark "A" indicates a mortality higher than 95%, mark "B" indicates a mortality of 80 to 95%, mark "C" indicates a mortality of 50 to 80%, and mark "D" indicates a mortality lower than 50%.

[10] = tested on: tobacco cutworm; assay: Test 2: Tobacco Cutworm Larva Dipping Test, mortality after 24 hours; type: in vivo; settings: 24 hours
In short: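 Second- and fifth-instar larvae dipped 5 s in a water dilution of an emulsifiable concentrate at 100 or 20 ppm, blotted, then held on artificial diet at 25° C. Dead and living larvae counted after 24 hours; mortality averaged over three cups.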

[11] = 20 ppm, sensitive female adults, 24 hours
[12] = 100 ppm, sensitive female adults, 24 hours
[13] = 100 ppm, adults, 24 hours, 25° C, read-out: Mortality (%)
[14] = 10 mg/m^2, male adults, agonized and killed after 24 hours, read-out: Mortality (%)
[15] = 50 mg/m^2, male adults, agonized and killed after 24 hours, read-out: Mortality (%)
[16] = fifth-instar larvae, read-out: Motality (%), Fifth-Instar Larvae
[17] = second-instar larvae, read-out: Motality (%), Second-Instar Larvae

CCC(C)(COCc1cccc(Oc2ccc(Br)cc2)c1)c1ccc(F)cc1 (stereo not shown) [Compound 16, 3-(4-bromophenoxy)benzyl 2-(4-fluorophenyl)-2-ethylpropyl ether]
mortality at 20 ppm ([1]; 24 h): 100% | mortality at 100 ppm ([1]; 24 h): 100% | mortality at 20 ppm [2, 11]: 90% | mortality at 100 ppm [2, 12]: 100% | mortality at 100 ppm [3, 13]: 90% | LD50 at 168 h [4]: > 500 mg/kg

CC(C)(COCc1cccc(Cc2ccccc2)c1)c1ccc(Cl)cc1 [Compound 35, 3-Benzylbenzyl 2-(4-chlorophenyl)-2-methylpropyl ether]
mortality at 20 ppm ([1]; 24 h): 70% | mortality at 100 ppm ([1]; 24 h): 100% | mortality at 20 ppm [2, 11]: 50% | mortality at 100 ppm [2, 12]: 100% | mortality at 100 ppm [3, 13]: 85% | LC50 at 48 h [5]: > 10 µg/mL | LD50 at 168 h [4]: > 500 mg/kg

Cc1ccc(C(C)(C)COCc2cccc(Oc3ccccc3)c2)cc1 [Compound 47, 3-Phenoxybenzyl 2-(4-methylphenyl)-2-methylpropyl ether]
mortality at 20 ppm [6]: 90% | mortality at 100 ppm [6]: 100% | mortality at 20 ppm ([1]; 24 h): 100% | mortality at 100 ppm ([1]; 24 h): 100% | mortality at 20 ppm [2, 11]: 100% | mortality at 100 ppm [2, 12]: 100% | mortality at 100 ppm [3, 13]: 100% | mortality at 10 mg/m2 [7, 14]: 90% | mortality at 50 mg/m2 [7, 15]: 100% | LC50 at 48 h [5]: > 10 µg/mL | LD50 at 168 h [4]: > 500 mg/kg

CC(C)(COCc1cccc(Oc2ccc(F)cc2)c1)c1ccc(F)cc1 [Compound 45]
mortality at 20 ppm [6]: 100% | mortality at 100 ppm [6]: 100% | mortality at 20 ppm ([1]; 24 h): 100% | mortality at 100 ppm ([1]; 24 h): 100% | mortality at 20 ppm [2, 11]: 100% | mortality at 100 ppm [2, 12]: 100% | mortality at 20 ppm [8]: 100% | mortality at 100 ppm [8]: 100% | mortality at 100 ppm [3, 13]: 100% | mortality at 10 mg/m2 [7, 14]: 100% | mortality at 50 mg/m2 [7, 15]: 100% | LC50 at 48 h [5]: > 1 µg/mL | LD50 at 168 h [4]: > 500 mg/kg

CC(C)COc1ccc(C(C)(C)COCc2cccc(Oc3ccccc3)c2)cc1 [Compound 64, 3-Phenoxybenzyl 2-(4-isobutyloxyphenyl)-2-methylpropyl ether]
mortality at 20 ppm [8]: 70% | mortality at 100 ppm [8]: 100% | mortality at 100 ppm [9]: > 95% | mortality at 100 ppm [3, 13]: 100% | LD50 at 168 h [4]: > 500 mg/kg

CCOc1ccc(C(C)(C)COCc2cccc(Oc3ccccc3)c2)cc1C [Compound 90, 3-Phenoxybenzyl 2-(4-ethoxy-3-methylphenyl)-2-methylpropyl ether]
mortality at 20 ppm [6]: 100% | mortality at 100 ppm [6]: 100% | mortality at 20 ppm [10, 16]: 90% | mortality at 20 ppm [10, 17]: 100% | mortality at 100 ppm [10, 16]: 100% | mortality at 100 ppm [10, 17]: 100% | mortality at 20 ppm ([1]; 24 h): 100% | mortality at 100 ppm ([1]; 24 h): 100% | mortality at 20 ppm [2, 11]: 100% | mortality at 100 ppm [2, 12]: 100% | mortality at 20 ppm [8]: 100% | mortality at 100 ppm [8]: 100% | mortality at 100 ppm [3, 13]: 100% | mortality at 10 mg/m2 [7, 14]: 90% | mortality at 50 mg/m2 [7, 15]: 100% | LD50 at 168 h [4]: > 500 mg/kg

CCCOc1ccc(C(C)(C)COCc2cccc(Oc3ccccc3)c2)cc1 [Compound 57, 3-Phenoxybenzyl 2-[4-(n-propoxy)phenyl]-2-methylpropyl ether]
mortality at 20 ppm [6]: 100% | mortality at 100 ppm [6]: 100% | mortality at 20 ppm ([1]; 24 h): 100% | mortality at 100 ppm ([1]; 24 h): 100% | mortality at 20 ppm [2, 11]: 100% | mortality at 100 ppm [2, 12]: 100% | mortality at 20 ppm [8]: 75% | mortality at 100 ppm [8]: 100% | mortality at 100 ppm [9]: > 95% | mortality at 100 ppm [3, 13]: 90% | LD50 at 168 h [4]: > 500 mg/kg

C#CCOc1ccc(C(C)(C)COCc2cccc(Oc3ccccc3)c2)cc1 [Compound 98, 3-Phenoxybenzyl 2-(4-propargyloxyphenyl)-2-methylpropyl ether]
mortality at 20 ppm [6]: 100% | mortality at 100 ppm [6]: 100% | mortality at 100 ppm [3, 13]: 100% | LD50 at 168 h [4]: > 500 mg/kg

CC(C)(COCc1cccc(Oc2ccccc2)c1)c1cc(Cl)cc(Cl)c1 [Compound 56, 3-Phenoxybenzyl 2-(3,5-dichlorophenyl)-2-methylpropyl ether]
mortality at 20 ppm ([1]; 24 h): 100% | mortality at 100 ppm ([1]; 24 h): 100% | mortality at 20 ppm [2, 11]: 90% | mortality at 100 ppm [2, 12]: 100% | mortality at 100 ppm [3, 13]: 80% | LD50 at 168 h [4]: > 500 mg/kg

CC(C)(COCc1cccc(Oc2cccc(Cl)c2)c1)c1ccc(OC(F)F)cc1 [Compound 25, 3-(3-Chlorophenoxy)benzyl 2-(4-difluoromethoxyphenyl)-2-methylpropyl ether]
mortality at 20 ppm ([1]; 24 h): 100% | mortality at 100 ppm ([1]; 24 h): 100% | mortality at 20 ppm [2, 11]: 100% | mortality at 100 ppm [2, 12]: 100% | mortality at 100 ppm [3, 13]: 90% | LD50 at 168 h [4]: > 500 mg/kg

CCC(C)(COCc1cccc(Oc2ccc(Br)cc2)c1)c1ccc(Cl)cc1 (stereo not shown) [Compound 46]
mortality at 20 ppm [6]: 100% | mortality at 100 ppm [6]: 100% | mortality at 20 ppm [10, 16]: 60% | mortality at 20 ppm [10, 17]: 80% | mortality at 100 ppm [10, 16]: 80% | mortality at 100 ppm [10, 17]: 90% | mortality at 20 ppm ([1]; 24 h): 80% | mortality at 100 ppm ([1]; 24 h): 100% | mortality at 20 ppm [2, 11]: 65% | mortality at 100 ppm [2, 12]: 100% | mortality at 20 ppm [8]: 100% | mortality at 100 ppm [8]: 100% | mortality at 100 ppm [3, 13]: 95% | LC50 at 48 h [5]: > 10 µg/mL | LD50 at 168 h [4]: > 500 mg/kg

CCOCc1ccc(C(C)(C)COCc2cccc(Oc3ccccc3)c2)cc1 [Compound 82, 3-Phenoxybenzyl 2-(4-ethoxymethylphenyl)-2-methylpropyl ether]
mortality at 20 ppm ([1]; 24 h): 100% | mortality at 100 ppm ([1]; 24 h): 100% | mortality at 20 ppm [2, 11]: 80% | mortality at 100 ppm [2, 12]: 100% | mortality at 100 ppm [3, 13]: 90% | LD50 at 168 h [4]: > 500 mg/kg

CCOP(=S)(OCC)Oc1ccc(=O)n(-c2ccccc2)n1 [(d), O,O-diethyl-O-(3-oxo-2-phenyl-2H-pyridazin-6-yl)-phosphorothioate, reference compound]
mortality at 20 ppm ([1]; 20 ppm, resistant female adults, 24 hours): 10% | mortality at 100 ppm ([1]; 100 ppm, resistant female adults, 24 hours): 20% | mortality at 20 ppm ([2]; 24 h): 40% | mortality at 100 ppm ([2]; 24 h): 90% | mortality at 100 ppm ([3]; 24 h): 40% | mortality at 10 mg/m2 ([7]; 24 h): 50% | mortality at 50 mg/m2 ([7]; 24 h): 100%

Cc1ccc(C(C)(C)COCc2cccc(Oc3ccc(Br)cc3)c2)cc1 [Compound 33, 3-(4-Bromophenoxy)benzyl 2-(4-methylphenyl)-2-methylpropyl ether]
mortality at 20 ppm [6]: 90% | mortality at 100 ppm [6]: 100% | mortality at 20 ppm ([1]; 24 h): 100% | mortality at 100 ppm ([1]; 24 h): 100% | mortality at 20 ppm [2, 11]: 100% | mortality at 100 ppm [2, 12]: 100% | mortality at 20 ppm [8]: 90% | mortality at 100 ppm [8]: 100% | mortality at 100 ppm [3, 13]: 95% | LC50 at 48 h [5]: > 10 µg/mL | LD50 at 168 h [4]: > 500 mg/kg
